Source: patent publication US20240238423A9, “TETRAHYDROISOQUINOLINE HETEROBIFUNCTIONAL BCL-XL DEGRADERS” (Treeline Biosciences, Inc., priority 2022, published 2024)
Read-outs that look alike come from different tables or passages of the source.

Target: T1, Human BCL-XL protein (N-terminal HiBiT tagged BCL-XL in HT1080 cells) (Homo sapiens, UniProt Q07817)
T1 construct: expressed in transfected cells; host or cells: HT-1080 (ATCC CCL-121), stably transduced with lentivirus pLV-UBC-N-HiBiT-BCL-XL-PGK-puro and selected with puromycin
Experiment: HiBiT based degradation assay
Type: cell-based
Conditions: HT1080 cells expressing HiBiT-BCL-XL; for Ymin (6 h) / Ymin (24 h): BCL-XL degradation normalized with DMSO control; for DC50: BCL-XL degradation
Method in brief: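 This HiBiT degradation assay measured loss of BCL-XL in HT1080 cells that stably express an N-terminal HiBiT-BCL-XL fusion delivered by lentivirus. Cells were added to compound-spotted 384-well plates, and luminescence was read on a PHERAstar FSX reader. Signal was expressed relative to DMSO controls, curves were fitted by four-parameter logistic regression, and for hook-shaped curves the Ymin point served as the bottom plateau when calculating EC50.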

T1 sequence (Q07817 whole entry): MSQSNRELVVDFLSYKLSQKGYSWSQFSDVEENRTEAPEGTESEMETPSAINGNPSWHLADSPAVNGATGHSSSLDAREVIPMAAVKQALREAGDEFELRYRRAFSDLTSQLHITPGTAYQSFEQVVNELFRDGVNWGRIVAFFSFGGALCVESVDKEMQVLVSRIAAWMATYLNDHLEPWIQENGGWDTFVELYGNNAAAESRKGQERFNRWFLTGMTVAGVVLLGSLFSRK

| Compound | Ymin (6 h) | Ymin (24 h) | DC50 (6 h, read-out: EC50 (6 h)) [nM] | DC50 (24 h, read-out: EC50 (24 h)) [nM] |
| --- | --- | --- | --- | --- |
| Cc1c(O[C@H]2CC[C@@H](CCC(=O)N3CCN(c4ccc5c(C6CCC(=O)NC6=O)nn(C)c5c4)CC3)CC2)cccc1-c1ccc(N2CCc3cccc(C(=O)Nc4nc5ccccc5s4)c3C2)nc1C(=O)O (stereo partly shown) [Compound 138b, 6-(8-(benzo[d]thiazol-2-ylcarbamoyl)-3,4-dihydroisoquinolin-2(1H)-yl)-3-(3-(((1s,4s)-4-(3-(4-(3-(2,6-dioxopiperidin-3-yl)-1-methyl-1H-indazol-6-yl)piperazin-1-yl)-3-oxopropyl)cyclohexyl)oxy)-2-methylphenyl)picolinic acid] |  | B (50% ≤ Ymin < 70%) |  | < 100 |
| Cc1c(OCCN2CCN(CC3CCN(c4cccc5c(C6CCC(=O)NC6=O)nn(C)c45)CC3)CC2)cccc1-c1ccc(N2CCc3cccc(C(=O)Nc4nc5ccccc5s4)c3C2)nc1C(=O)O (stereo not shown) [Compound 228, 6-(8-(benzo[d]thiazol-2-ylcarbamoyl)-3,4-dihydroisoquinolin-2(1H)-yl)-3-(3-(2-(4-((1-(3-(2,6-dioxopiperidin-3-yl)-1-methyl-1H-indazol-7-yl)piperidin-4-yl)methyl)piperazin-1-yl)ethoxy)-2-methylphenyl)picolinic acid] |  | B (50% ≤ Ymin < 70%) |  | < 100 |
| Cc1cc(OCCC[C@@H]2CCN(CC(=O)Nc3ccc4c(C5CCC(=O)NC5=O)nn(C)c4c3)[C@@H](C)C2)ccc1-c1ccc(N2CCc3cccc(C(=O)Nc4nc5ccccc5s4)c3C2)nc1C(=O)O (stereo partly drawn) [Compound 344d, 6-(8-(benzo[d]thiazol-2-ylcarbamoyl)-3,4-dihydroisoquinolin-2(1H)-yl)-3-(4-(3-((2S,4R)-1-(2-((3-(2,6-dioxopiperidin-3-yl)-1-methyl-1H-indazol-6-yl)amino)-2-oxoethyl)-2-methylpiperidin-4-yl)propoxy)-2-methylphenyl)picolinic acid] |  | A (Ymin < 50%) |  | < 100 |
| Cc1c(O[C@H]2CC[C@H](CCCCN3CCN(c4cccc5c(C6CCC(=O)NC6=O)nn(C)c45)CC3)CC2)cccc1-c1ccc(N2CCc3cccc(C(=O)Nc4nc5ccccc5s4)c3C2)nc1C(=O)O (stereo partly shown) [Compound 204a, 6-(8-(benzo[d]thiazol-2-ylcarbamoyl)-3,4-dihydroisoquinolin-2(1H)-yl)-3-(3-(((1s,4r)-4-(4-(4-(3-(2,6-dioxopiperidin-3-yl)-1-methyl-1H-indazol-7-yl)piperazin-1-yl)butyl)cyclohexyl)oxy)-2-methylphenyl)picolinic acid] |  | B (50% ≤ Ymin < 70%) |  | < 100 |
| Cc1c(OCCCN2C[C@@H](C)N(CC(=O)Nc3cccc4c(C5CCC(=O)NC5=O)nn(C)c34)[C@@H](C)C2)cccc1-c1ccc(N2CCc3cccc(C(=O)Nc4nc5ccccc5s4)c3C2)nc1C(=O)O (stereo partly drawn) [Compound 117a, 6-[8-(1,3-benzothiazol-2-ylcarbamoyl)-3,4-dihydro-1H-isoquinolin-2-yl]-3-[3-[3-[(3S,5R)-4-[2-[[3-(2,6-dioxo-3-piperidyl)-1-methyl-indazol-7-yl]amino]-2-oxo-ethyl]-3,5-dimethyl-piperazin-1-yl]propoxy]-2-methyl-phenyl]pyridine-2-carboxylic acid] | B (50% ≤ Ymin < 70%) | B (50% ≤ Ymin < 70%) | < 100 | < 100 |
| Cc1c(OCCCC2CCN(CCC3CCN(c4ccc5c(C6CCC(=O)NC6=O)nn(C)c5c4)CC3)CC2)cccc1-c1ccc(N2CCc3cccc(C(=O)Nc4nc5ccccc5s4)c3C2)nc1C(=O)O (stereo not shown) [Compound 192, 6-(8-(benzo[d]thiazol-2-ylcarbamoyl)-3,4-dihydroisoquinolin-2(1H)-yl)-3-(3-(3-(1-(2-(1-(3-(2,6-dioxopiperidin-3-yl)-1-methyl-1H-indazol-6-yl)piperidin-4-yl)ethyl)piperidin-4-yl)propoxy)-2-methylphenyl)picolinic acid] |  | A (Ymin < 50%) |  | < 100 |
| Cc1c(OCCCC2CCN([C@H](C)C(=O)Nc3ccc4c(C5CCC(=O)NC5=O)nn(C)c4c3)CC2)cccc1-c1ccc(N2CCc3cccc(C(=O)Nc4nc5ccccc5s4)c3C2)nc1C(=O)O (stereo partly drawn) [Compound 164b, 6-(8-(benzo[d]thiazol-2-ylcarbamoyl)-3,4-dihydroisoquinolin-2(1H)-yl)-3-(3-(3-(1-((2R)-1-((3-(2,6-dioxopiperidin-3-yl)-1-methyl-1H-indazol-6-yl)amino)-1-oxopropan-2-yl)piperidin-4-yl)propoxy)-2-methylphenyl)picolinic acid] |  | A (Ymin < 50%) |  | < 100 |
| Cc1c(O[C@H]2CC[C@H](CCCCN3CCN(c4ccc5c(C6CCC(=O)NC6=O)nn(C)c5c4)C[C@@H]3C)CC2)cccc1-c1ccc(N2CCc3cccc(C(=O)Nc4nc5ccccc5s4)c3C2)nc1C(=O)O (stereo partly drawn) [Compound 297b, 6-(8-(benzo[d]thiazol-2-ylcarbamoyl)-3,4-dihydroisoquinolin-2(1H)-yl)-3-(3-(((1r,4r)-4-(4-((2S)-4-(3-(2,6-dioxopiperidin-3-yl)-1-methyl-1H-indazol-6-yl)-2-methylpiperazin-1-yl)butyl)cyclohexyl)oxy)-2-methylphenyl)picolinic acid] |  | A (Ymin < 50%) |  | < 100 |

Results, then the molecule that gave them:

| Ymin (6 h) | Ymin (24 h) | DC50 (6 h, read-out: EC50 (6 h)) [nM] | DC50 (24 h, read-out: EC50 (24 h)) [nM] | Compound |
| --- | --- | --- | --- | --- |
| B (50% ≤ Ymin < 70%) | A (Ymin < 50%) | < 100 | < 100 | Cc1c(O[C@@H](C)CCC2CCN(CC(=O)Nc3ccc4c(C5CCC(=O)NC5=O)nn(C)c4c3)CC2)cccc1-c1ccc(N2CCc3cccc(C(=O)Nc4nc5ccccc5s4)c3C2)nc1C(=O)O (stereo partly shown) [Compound 162a, 6-[8-(1,3-benzothiazol-2-ylcarbamoyl)-3,4-dihydro-H-isoquinolin-2-yl]-3-[3-[(1 S)-3-[1-[2-[[3-(2,6-dioxo-3-piperidyl)-1-methyl-indazol-6-yl]amino]-2-oxo-ethyl]-4-piperidyl]-1-methyl-propoxy]-2-methyl-phenyl]pyridine-2-carboxylic acid] |
|  | A (Ymin < 50%) |  | < 100 | Cc1c(OCCC2CCN(CCCC3CCN(c4cccc5c(C6CCC(=O)NC6=O)nn(C)c45)CC3)CC2)cccc1-c1ccc(N2CCc3cccc(C(=O)Nc4nc5ccccc5s4)c3C2)nc1C(=O)O (stereo not shown) [Compound 288, 6-[8-(1,3-benzothiazol-2-ylcarbamoyl)-3,4-dihydro-1H-isoquinolin-2-yl]-3-[3-[2-[1-[3-[1-[3-(2,6-dioxo-3-piperidyl)-1-methyl-indazol-7-yl]-4-piperidyl]propyl]-4-piperidyl]ethoxy]-2-methyl-phenyl]pyridine-2-carboxylic acid] |
|  | A (Ymin < 50%) |  | < 100 | Cc1c(O[C@H]2CC[C@H](CC[C@H](C)N3CCN(c4cccc5c(C6CCC(=O)NC6=O)nn(C)c45)CC3)CC2)cccc1-c1ccc(N2CCc3cccc(C(=O)Nc4nc5ccccc5s4)c3C2)nc1C(=O)O (single isomer, unassigned) [Compound 283a] |
|  | A (Ymin < 50%) |  | < 100 | Cc1c(O[C@H]2CC[C@H](CCCN3CCN(c4ccc5c(C6CCC(=O)NC6=O)nn(C)c5c4)[C@H](C)C3)CC2)cccc1-c1ccc(N2CCc3cccc(C(=O)Nc4nc5ccccc5s4)c3C2)nc1C(=O)O (stereo partly drawn) [Compound 278a, 6-(8-(benzo[d]thiazol-2-ylcarbamoyl)-3,4-dihydroisoquinolin-2(1H)-yl)-3-(3-(((1S,4r)-4-(3-((3R)-4-(3-(2,6-dioxopiperidin-3-yl)-1-methyl-1H-indazol-6-yl)-3-methylpiperazin-1-yl)propyl)cyclohexyl)oxy)-2-methylphenyl)picolinic acid] |
